Inconclusive results and toxic doses are left out. How the source made its calls: active means survival T/C of 150% or more; inactive means T/C below 125% in these data.
Test system: CD2F1 mice, L1210 leukemia ip, survival T/C
Test: NCI In Vivo Anticancer Drug Screen. Data for tumor model L1210 Leukemia (intraperitoneal) in CD2F1 (CDF1) mice
Conditions: higher = longer survival
Method in brief: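 Read-out first: treated-group measurement over vehicle-control measurement, expressed as a ratio. Animals bore a transplanted tumor line and were dosed with compound or vehicle.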

[1] = endpoint: mean survival time, dose: 100.0 mg/kg/injection, schedule: Q04DX002 (ip), vehicle: saline with Tween-80
[2] = endpoint: mean survival time, dose: 200.0 mg/kg/injection, schedule: Q04DX002 (ip), vehicle: saline with Tween-80
[3] = endpoint: mean survival time, dose: 100.0 mg/kg/injection, schedule: Q01DX009 (ip), vehicle: saline with Tween-80
[4] = endpoint: mean survival time, dose: 200.0 mg/kg/injection, schedule: Q01DX009 (ip), vehicle: saline with Tween-80
[5] = endpoint: mean survival time, dose: 400.0 mg/kg/injection, schedule: Q01DX009 (ip), vehicle: saline with Tween-80
[6] = endpoint: mean survival time, dose: 100.0 mg/kg/injection, schedule: Q04DX003 (ip), vehicle: saline
[7] = endpoint: mean survival time, dose: 200.0 mg/kg/injection, schedule: Q04DX003 (ip), vehicle: saline
[8] = endpoint: mean survival time, dose: 400.0 mg/kg/injection, schedule: Q04DX003 (ip), vehicle: saline
[9] = endpoint: mean survival time, dose: 150.0 mg/kg/injection, schedule: Q01DX001 (ip), vehicle: saline
[10] = endpoint: mean survival time, dose: 100.0 mg/kg/injection, schedule: Q01DX001 (ip), vehicle: saline with Tween-80
[11] = endpoint: mean survival time, dose: 200.0 mg/kg/injection, schedule: Q01DX001 (ip), vehicle: saline with Tween-80
[12] = endpoint: mean survival time, dose: 400.0 mg/kg/injection, schedule: Q01DX001 (ip), vehicle: saline with Tween-80
[13] = endpoint: mean survival time, dose: 75.0 mg/kg/injection, schedule: Q01DX001 (ip), vehicle: saline
[14] = endpoint: mean survival time, dose: 300.0 mg/kg/injection, schedule: Q01DX001 (ip), vehicle: saline
[15] = endpoint: mean survival time, dose: 100.0 mg/kg/injection, schedule: Q04DX003 (ip), vehicle: saline with Tween-80

Measured: T/C

NC(=O)C1(C(N)=O)CCCCC1
inactive: endpoint: mean survival time, dose: 50.0 mg/kg/injection, schedule: Q04DX002 (ip), vehicle: saline with Tween-80 100 % of control | [1] 112 % of control | [2] 100 % of control

Nc1nc2nc(-c3ccccc3)c(-c3ccccc3)nc2c(=O)[nH]1
inactive: [3] 96 % of control | [4] 94 % of control | [5] 97 % of control

CC1=NCCc2ccccc21
inactive: endpoint: mean survival time, dose: 12.5 mg/kg/injection, schedule: Q04DX003 (ip), vehicle: saline 102 % of control | endpoint: mean survival time, dose: 25.0 mg/kg/injection, schedule: Q04DX003 (ip), vehicle: saline 93 % of control

C=C1C(=O)OC2(C)C(C)=C(C)C12C (stereo not given)
inactive: [6] 101 % of control | [7] 112 % of control | [8] 108 % of control

CCOC(=O)C(C(=O)COC)C(=O)OCC
inactive: endpoint: mean survival time, dose: 25.0 mg/kg/injection, schedule: Q01DX009 (ip), vehicle: water 102 % of control | endpoint: mean survival time, dose: 50.0 mg/kg/injection, schedule: Q01DX009 (ip), vehicle: water 97 % of control | endpoint: mean survival time, dose: 100.0 mg/kg/injection, schedule: Q01DX009 (ip), vehicle: water 97 % of control | endpoint: mean survival time, dose: 200.0 mg/kg/injection, schedule: Q01DX009 (ip), vehicle: water 94 % of control

Nc1n[nH]c(=S)s1
inactive: [1] 107 % of control | [2] 96 % of control

O=C1OCCCC1O (stereo not given)
inactive: [9] 97 % of control

O=c1scc(-c2ccc(Br)cc2)s1
inactive: endpoint: mean survival time, dose: 12.5 mg/kg/injection, schedule: Q01DX009 (ip), vehicle: Klucel (hydroxypropylcellulose) (HPC) 93 % of control | endpoint: mean survival time, dose: 25.0 mg/kg/injection, schedule: Q01DX009 (ip), vehicle: Klucel (hydroxypropylcellulose) (HPC) 100 % of control

Cc1[nH]c(=S)[nH]c(=O)c1CC(C)O (stereo not given)
inactive: [3] 97 % of control | [4] 90 % of control | [5] 98 % of control

O=P(O)(O)OP(=O)(O)OCC1OC(n2cnc3c(=S)nc[nH]c32)C(O)C1O (stereo not given)
inactive: endpoint: mean survival time, dose: 200.0 mg/kg/injection, schedule: Q01DX009 (ip), vehicle: saline sonified 123 % of control | endpoint: mean survival time, dose: 400.0 mg/kg/injection, schedule: Q01DX009 (ip), vehicle: saline sonified 112 % of control

COc1ccc2nc3c(Cl)cccc3c(Oc3ccccc3)c2c1
inactive: [10] 94 % of control | [11] 92 % of control | [12] 101 % of control

CCCC1(CC(C)CC)C(=O)NC(=O)NC1=O (stereo not given) (tested in a mixture with another compound)
inactive: [13] 93 % of control | [9] 100 % of control | [14] 104 % of control

Cc1cccc(/C=C/c2cccc[n+]2[O-])[n+]1[O-]
inactive: [6] 103 % of control | [7] 96 % of control | [8] 96 % of control

O=[N+]([O-])c1ccc(N=C(Cl)N2CCCCC2)cc1
inactive: endpoint: mean survival time, dose: 100.0 mg/kg/injection, schedule: Q01DX001 (ip), vehicle: saline 109 % of control | endpoint: mean survival time, dose: 200.0 mg/kg/injection, schedule: Q01DX001 (ip), vehicle: saline 103 % of control | endpoint: mean survival time, dose: 400.0 mg/kg/injection, schedule: Q01DX001 (ip), vehicle: saline 107 % of control

N\C([S-])=N/N=C\C(=N/N=C(\N)[S-])C(O)C(O)C(O)CO.[Ni+2] (stereo not given)
inactive: endpoint: mean survival time, dose: 80.5 mg/kg/injection, schedule: Q01DX009 (ip), vehicle: saline with Tween-80 102 % of control | endpoint: mean survival time, dose: 161.0 mg/kg/injection, schedule: Q01DX009 (ip), vehicle: saline with Tween-80 95 % of control

O=C1CC2OCC=C3CN4CCC5(C(=O)O)C(N1)C2C3CC45 (stereo not given)
inactive: [13] 106 % of control | [9] 100 % of control | [14] 100 % of control

O=[N+]([O-])c1ccc2c(N=Nc3c(O)ccc4ccccc34)c(O)cc(S(=O)(=O)O)c2c1
inactive: endpoint: mean survival time, dose: 50.0 mg/kg/injection, schedule: Q01DX009 (ip), vehicle: saline 119 % of control | endpoint: mean survival time, dose: 100.0 mg/kg/injection, schedule: Q01DX009 (ip), vehicle: saline 100 % of control | endpoint: mean survival time, dose: 200.0 mg/kg/injection, schedule: Q01DX009 (ip), vehicle: saline 109 % of control

CC(C)(C)c1nc2ccccc2p1-c1ccccc1 (stereo not given)
inactive: endpoint: mean survival time, dose: 100.0 mg/kg/injection, schedule: Q01DX001 (ip), vehicle: other 98 % of control | endpoint: mean survival time, dose: 200.0 mg/kg/injection, schedule: Q01DX001 (ip), vehicle: other 91 % of control | endpoint: mean survival time, dose: 400.0 mg/kg/injection, schedule: Q01DX001 (ip), vehicle: other 95 % of control

CC(=O)OCC1OC(n2cnc(C(=O)O)c2N)C(OC(C)=O)C1OC(C)=O (stereo not given)
inactive: endpoint: median survival time, dose: 8.75 mg/kg/injection, schedule: Q01DX005 (ip), vehicle: saline 98 % of control | endpoint: median survival time, dose: 17.5 mg/kg/injection, schedule: Q01DX005 (ip), vehicle: saline 100 % of control | endpoint: median survival time, dose: 35.0 mg/kg/injection, schedule: Q01DX005 (ip), vehicle: saline 96 % of control | endpoint: median survival time, dose: 70.0 mg/kg/injection, schedule: Q01DX005 (ip), vehicle: saline 96 % of control | endpoint: median survival time, dose: 140.0 mg/kg/injection, schedule: Q01DX005 (ip), vehicle: saline 98 % of control

CCCN(CCC)CC(=O)c1ccc2cc(Br)c3ccccc3c2c1
inactive: [6] 92 % of control | [7] 91 % of control | [8] 89 % of control

NCC1=NCCN1
inactive: endpoint: mean survival time, dose: 100.0 mg/kg/injection, schedule: Q04DX002 (ip), vehicle: saline 124 % of control | endpoint: mean survival time, dose: 200.0 mg/kg/injection, schedule: Q04DX002 (ip), vehicle: saline 95 % of control | endpoint: mean survival time, dose: 400.0 mg/kg/injection, schedule: Q04DX002 (ip), vehicle: saline 102 % of control

[N-]=[N+]=NCc1cn(C2CC(O)C(CO)O2)c(=O)[nH]c1=O (stereo not given)
inactive: endpoint: mean survival time, dose: 6.25 mg/kg/injection, schedule: Q01DX005 (ip), vehicle: water 91 % of control | endpoint: mean survival time, dose: 12.5 mg/kg/injection, schedule: Q01DX005 (ip), vehicle: water 111 % of control | endpoint: mean survival time, dose: 25.0 mg/kg/injection, schedule: Q01DX005 (ip), vehicle: water 103 % of control | endpoint: mean survival time, dose: 50.0 mg/kg/injection, schedule: Q01DX005 (ip), vehicle: water 100 % of control

CC(=O)OC/C(=N\Nc1ccc([N+](=O)[O-])cc1[N+](=O)[O-])c1ccccc1
inactive: endpoint: mean survival time, dose: 3.13 mg/kg/injection, schedule: Q01DX001 (ip), vehicle: saline with Tween-80 107 % of control | endpoint: mean survival time, dose: 6.25 mg/kg/injection, schedule: Q01DX001 (ip), vehicle: saline with Tween-80 94 % of control | [10] 86 % of control | [12] 90 % of control

CC(=O)C(C(C)=O)C(=[C-]C(F)(F)F)C(F)(F)F.CC(=O)C(C(C)=O)C(=[C-]C(F)(F)F)C(F)(F)F.[Pd+2]
inactive: endpoint: mean survival time, dose: 3.13 mg/kg/injection, schedule: Q04DX003 (ip), vehicle: distilled water + Tween-80 102 % of control | endpoint: mean survival time, dose: 6.25 mg/kg/injection, schedule: Q04DX003 (ip), vehicle: distilled water + Tween-80 96 % of control | endpoint: mean survival time, dose: 12.5 mg/kg/injection, schedule: Q04DX003 (ip), vehicle: distilled water + Tween-80 102 % of control

CN(C)CCOc1ccccc1Cc1ccccc1
inactive: endpoint: mean survival time, dose: 50.0 mg/kg/injection, schedule: Q01DX009 (ip), vehicle: saline with Tween-80 104 % of control | [3] 119 % of control | [15] 98 % of control | [4] 107 % of control | endpoint: mean survival time, dose: 200.0 mg/kg/injection, schedule: Q04DX003 (ip), vehicle: saline with Tween-80 97 % of control

CC1CCC2CCCCC2[N-]1.CC1CCC2CCCCC2[N-]1.[Cl][Pt+2][Cl] (stereo not given)
inactive: endpoint: mean survival time, dose: 25.0 mg/kg/injection, schedule: Q04DX003 (ip), vehicle: saline with Tween-80 96 % of control | endpoint: mean survival time, dose: 50.0 mg/kg/injection, schedule: Q04DX003 (ip), vehicle: saline with Tween-80 94 % of control | [15] 94 % of control | endpoint: mean survival time, dose: 400.0 mg/kg/injection, schedule: Q04DX003 (ip), vehicle: saline with Tween-80 88 % of control

CNc1cc([N+](=O)[O-])ccc1Br
inactive: endpoint: mean survival time, dose: 100.0 mg/kg/injection, schedule: Q04DX002 (ip), vehicle: other 91 % of control | endpoint: mean survival time, dose: 200.0 mg/kg/injection, schedule: Q04DX002 (ip), vehicle: other 100 % of control | endpoint: mean survival time, dose: 400.0 mg/kg/injection, schedule: Q04DX002 (ip), vehicle: other 95 % of control

C=C(Br)CNC(=O)C(O)(c1ccccc1)c1ccccc1
inactive: [10] 103 % of control | [11] 87 % of control | [12] 89 % of control

Source: PubChem BioAssay AID256 (DTP/NCI, 2004)
